Molecules are shown by their SMILES.

The text below walks through data of US20100137313A1 (ASTRAZENECA AB, priority 2008, published 2010).

The target of the experiment is S. pneumoniae Topoisomerase IV ATPase (ParE) (Streptococcus pneumoniae serotype 4, UniProt Q59961). Briefly: S. pneumoniae Topoisomerase IV ATPase inhibition. The class given is biochemical. The conditions noted are these: values marked * are an average of two or more data points, read-out: % Inh (13 μM) of S. pneumoniae Topoisomerase IV ATPase. The gist of the method: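 S. pneumoniae ParE (1.25 nM) ATPase with 160 μM ATP and 5 μg/ml sheared DNA in pH 8.0 Tris, Mg2+, DTT, Brij-35; phosphate detected by malachite green/molybdate at 650 nm. Normalised to 2% DMSO (0%) and 20 μM EDTA (100%); IC50 from 10 concentrations.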
Chain of S. pneumoniae Topoisomerase IV ATPase (ParE) (Q59961 whole entry): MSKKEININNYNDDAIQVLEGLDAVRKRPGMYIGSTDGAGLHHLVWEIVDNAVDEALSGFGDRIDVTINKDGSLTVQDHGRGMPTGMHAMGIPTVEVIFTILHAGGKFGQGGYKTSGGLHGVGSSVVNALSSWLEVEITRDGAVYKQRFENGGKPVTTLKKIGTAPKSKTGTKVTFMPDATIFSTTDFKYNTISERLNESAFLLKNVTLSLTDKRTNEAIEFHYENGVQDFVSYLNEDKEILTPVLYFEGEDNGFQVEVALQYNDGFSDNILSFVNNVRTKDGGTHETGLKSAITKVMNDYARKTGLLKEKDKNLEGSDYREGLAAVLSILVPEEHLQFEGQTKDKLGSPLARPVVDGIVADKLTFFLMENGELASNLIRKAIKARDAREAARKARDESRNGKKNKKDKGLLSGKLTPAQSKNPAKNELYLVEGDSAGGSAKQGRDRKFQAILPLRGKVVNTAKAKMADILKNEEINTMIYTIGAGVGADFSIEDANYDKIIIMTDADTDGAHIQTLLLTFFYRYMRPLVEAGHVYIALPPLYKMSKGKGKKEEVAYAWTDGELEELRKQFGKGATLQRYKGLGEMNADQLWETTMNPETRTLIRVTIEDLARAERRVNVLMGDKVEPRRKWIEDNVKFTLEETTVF
Regarding `CCCS(=O)(=O)NC(=O)c1cc(-c2cnc(Nc3cc(C)cc(C)c3)nc2-n2nc(C(F)(F)F)cc2C)cnc1OC` [Example 825, 5-{2-[(3,5-dimethylphenyl)amino]-4-[5-methyl-3-(trifluoromethyl)-1H-pyrazol-1-yl]pyrimidin-5-yl}-2-methoxy-N-(propylsulfonyl)pyridine-3-carboxamide], the inhibition at 13 µM is 100%.

With `COCCNc1nc(Nc2ccc(F)c(Cl)c2)ncc1-c1cncc(C(=O)O)c1` [Example 234, 5-[2-[(3-chloro-4-fluorophenyl)amino]-4-(2-methoxyethylamino)-pyrimidin-5-yl]pyridine-3-carboxylic acid], the inhibition at 13 µM amounted to 73.2%.

For `COc1cc(Nc2ncc(-c3cccc(/C=C/C(=O)O)c3)c(N3CC(C)OC(C)C3)n2)cc(C(F)(F)F)c1` (stereo not shown) [Example 348, (E)-3-(3-(4-(2,6-dimethylmorpholino)-2-(3-methoxy-5-(trifluoromethyl)phenylamino)pyrimidin-5-yl)phenyl) acrylic acid], the inhibition at 13 µM was 85.7%.

On to `COCCCNc1nc(Nc2ccc(F)c(Cl)c2)ncc1-c1nc(C)c(C(=O)O)s1` [Example 509, 2-{2-[(3-chloro-4-fluorophenyl)amino]-4-[(3-methoxypropyl)amino]pyrimidin-5-yl}-4-methyl-1,3-thiazole-5-carboxylic acid], for which the inhibition at 13 µM was found to be 100%.

In the case of `O=C(O)c1cncc(-c2cnc(Nc3ccc(F)c(Cl)c3)nc2N2CCC(F)CC2)c1` [Example 248, 5-[2-[(3-chloro-4-fluorophenyl)amino]-4-(4-fluoropiperidin-1-yl)pyrimidin-5-yl]pyridine-3-carboxylic acid], the inhibition at 13 µM stood at 66.1%.

For the compound `CC(C)N1CCN(CCn2cc(-c3cnc(Nc4ccc(F)c(Cl)c4)nc3-n3ccc(C(F)(F)F)n3)cc(C(=O)O)c2=O)CC1` [Example 1089, 5-(2-(3-chloro-4-fluorophenylamino)-4-(3-(trifluoromethyl)-1H-pyrazol-1-yl)pyrimidin-5-yl)-1-(2-(4-isopropylpiperazin-1-yl)ethyl)-2-oxo-1,2-dihydropyridine-3-carboxylic acid], the inhibition at 13 µM came to 100%.

Regarding `O=C(O)/C=C/c1cccc(-c2cnc(Nc3ccc(F)c(Cl)c3)nc2-n2cccc2)c1` [Example 315, (2E)-3-(3-{2-[(3-chloro-4-fluorophenyl)amino]-4-(1H-pyrrol-1-yl)pyrimidin-5-yl}phenyl)prop-2-enoic acid], the inhibition at 13 µM worked out at 62.8%.

For the compound `CN(C)CCCNc1nc(Nc2ccc(F)c(Cl)c2)ncc1-c1ccc(F)c(C#N)c1` [Example 13, 5-{2-(3-chloro-4-fluorophenylamino)-4-[3-(dimethylamino)propylamino]pyrimidin-5-yl}-2-fluorobenzonitrile], the inhibition at 13 µM was determined as 102%.

Turning to `CCOC(=O)c1cncc(-c2cnc(Nc3ccc(F)c(Cl)c3)nc2NCc2ccncc2)c1` [Example 97, 5-{2-(3-Chloro-4-fluoro-phenylamino)-4-[(pyridin-4-ylmethyl)-amino]-pyrimidin-5-yl}-nicotinic acid ethyl ester], the inhibition at 13 µM was 75.9%.

For the compound `CN(C)CCCNc1nc(Nc2ccc(F)c(Cl)c2)ncc1-c1cncc(C(=O)O)c1` [Example 214, 5-(2-(3-chloro-4-fluorophenylamino)-4-(3-(dimethylamino)propylamino)pyrimidin-5-yl)nicotinic acid], the inhibition at 13 µM was determined as 101%.

Regarding `COc1cc(Nc2ncc(-c3cnc(OC)c(C(=O)NS(C)(=O)=O)c3)c(-n3ccc(C4CC4)n3)n2)cc(OC)c1` [Example 1152, 5-(4-(3-cyclopropyl-1H-pyrazol-1-yl)-2-(3,5-dimethoxyphenylamino)pyrimidin-5-yl)-2-methoxy-N-(methylsulfonyl)nicotinamide], the inhibition at 13 µM was determined as 100%.

On to `O=C(O)c1cncc(-c2cnc(Nc3cc(F)cc(F)c3)nc2-n2ccc(C(F)(F)F)n2)c1` [Example 639, 5-{2-[(3,5-difluorophenyl)amino]-4-[3-(trifluoromethyl)-1H-pyrazol-1-yl]pyrimidin-5-yl}pyridine-3-carboxylic acid], for which the inhibition at 13 µM was found to be 100%.

As to `CN(C)CCCNc1nc(Nc2ccc(F)c(Cl)c2)ncc1-c1cccc(C(=O)O)c1` [Example 31, 3-(2-[(3-chloro-4-fluorophenyl)amino]-4-{[3-(dimethylamino)propyl]-amino}pyrimidin-5-yl)benzoic acid], the inhibition at 13 µM was 86%.

As for `Fc1ccc(Nc2ncc(-c3cncnc3)c(N3CCOCC3)n2)cc1F` [Example 352], the inhibition at 13 µM worked out at 26.7%.

As for `CN(C)CCCNc1nc(Nc2ccc(F)c(Cl)c2)ncc1-c1ccc(C(=O)N(C)C)s1` [Example 366, 5-(2-(3-chloro-4-fluorophenylamino)-4-(3-(dimethylamino)propylamino)pyrimidin-5-yl)-N,N-dimethylthiophene-2-carboxamide], the inhibition at 13 µM was 80.5%.

On to `O=S(=O)(NCCO)c1cccc(-c2cnc(Nc3ccc(F)c(Cl)c3)nc2-n2ccc(C(F)(F)F)n2)c1` [Example 997, 3-(2-(3-Chloro-4-fluorophenylamino)-4-(3-(trifluoromethyl)-1H-pyrazol-1-yl)pyrimidin-5-yl)-N-(2-hydroxyethyl)benzenesulfonamide], for which the inhibition at 13 µM is 100%.

For the compound `O=C(O)/C=C/c1cccc(-c2cnc(Nc3ccc(F)c(Cl)c3)cc2N2CCOCC2)c1` [Example 1129], the inhibition at 13 µM stood at 83%.

In the case of `CC(=O)NCCNc1nc(Nc2ccc(F)c(Cl)c2)ncc1-c1cncnc1` [Example 37, N-[2-[[2-[(3-chloro-4-fluorophenyl)amino]-5-pyrimidin-5-ylpyrimidin-4-yl]amino]ethyl] acetamide], the inhibition at 13 µM worked out at 76.3%.

Regarding `Cn1cc(-c2cnc(Nc3ccc(F)c(Cl)c3)nc2-n2ccc(C(F)(F)F)n2)cc(C(=O)NS(C)(=O)=O)c1=O` [Example 1048, 5-(2-(3-Chloro-4-fluorophenylamino)-4-(3-(trifluoromethyl)-1H-pyrazol-1-yl)pyrimidin-5-yl)-1-methyl-N-(methylsulfonyl)-2-oxo-1,2-dihydropyridine-3-carboxamide], the inhibition at 13 µM was 100%.

`CC(=O)NC1CCN(c2nc(Nc3ccc(F)c(Cl)c3)ncc2-c2cncc(C(=O)O)c2)CC1` [Example 256, 5-[4-(4-acetamidopiperidin-1-yl)-2-[(3-chloro-4-fluorophenyl)amino]-pyrimidin-5-yl]pyridine-3-carboxylic acid]: the inhibition at 13 µM came out at 78.8%.

On to `CS(=O)(=O)NC(=O)c1cccc(-c2cnc(Nc3ccc(F)c(Cl)c3)nc2-n2ccc(C(F)(F)F)n2)c1` [Example 1002, 3-(2-(3-Chloro-4-fluorophenylamino)-4-(3-(trifluoromethyl)-1H-pyrazol-1-yl)pyrimidin-5-yl)-N-(methylsulfonyl)benzamide], for which the inhibition at 13 µM came out at 100%.

Turning to `CC1(C)[C@@H](C(=O)O)[C@@H]1c1cccc(-c2cnc(Nc3ccc(F)cc3)nc2-n2ccc(C(F)(F)F)n2)c1` [Example 571, (1,3-trans)-3-(3-(2-(4-fluorophenylamino)-4-(3-(trifluoromethyl)-1H-pyrazol-1-yl)pyrimidin-5-yl)phenyl)-2,2-dimethylcyclopropanecarboxylic acid], the inhibition at 13 µM worked out at 17%.
